Test results: the NIST ThermoML archive (doi:10.1016/j.fluid.2004.11.024)
Where “and” joins values, the source holds several entries; their conditions need not be identical. Identical values can stand only once.

Settings: Liquid, Transpiration method

CC(C)COc1ccccc1Br [1-bromo-2-isobutoxybenzene]
Settings	vapor or sublimation pressure [kPa]
293.3 K	0.00213
295.3 K	0.00252
298.1 K	0.00325
301.2 K	0.00423
303.3 K	0.00511
306.2 K	0.00634
308.3 K	0.00753
311.2 K	0.00954
313.3 K	0.01119
316.3 K	0.01398
318.2 K	0.01628
321.3 K	0.02031
323.2 K	0.02325

CC(C)COc1cccc(Br)c1 [1-bromo-3-isobutoxybenzene]
Settings	vapor or sublimation pressure [kPa]
290.2 K	0.00145
293.3 K	0.00194
295.2 K	0.00232
298.1 K	0.00301
301.1 K	0.00389
303.2 K	0.00465
306.2 K	0.00607
308.1 K	0.00703
311.3 K	0.00909
313.2 K	0.0106
316.1 K	0.01312
318.3 K	0.01567
321.3 K	0.01929
323.2 K	0.02231

CC(C)COc1ccc(Br)cc1 [1-bromo-4-isobutoxybenzene]
Settings	vapor or sublimation pressure [kPa]
293.2 K	0.00151
298.3 K	0.00242
301.2 K	0.00304
303.2 K	0.00351
306.2 K	0.0048
308.4 K	0.00538
311.3 K	0.00687
313.3 K	0.0081
316.2 K	0.0101
318.3 K	0.01175
321.3 K	0.01498
323.2 K	0.01699
326.3 K	0.0224
328.2 K	0.02634
331.2 K	0.03352
333.2 K	0.0391

Cc1ccc(OCC(C)C)c(Br)c1 [2-bromo-1-isobutoxy-4-methylbenzene]
Settings	vapor or sublimation pressure
293.2 K	0.0006 kPa
295.2 K	0.00076 kPa
298.3 K	0.00103 kPa
300.2 K	0.0012 kPa
301.2 K	0.00132 kPa
303.1 K	0.0016 kPa
303.8 K	0.00167 kPa
306.1 K	0.00208 kPa
306.2 K	0.00213 kPa
308.2 K	0.00261 kPa
309.1 K	0.00271 kPa
311.1 K	0.00328 kPa
311.2 K	0.00322 kPa
313.2 K	0.00385 kPa
316.3 K	0.00506 kPa
318.2 K	0.00591 kPa
318.7 K	0.00622 kPa
321.2 K	0.00746 kPa
321.3 K	0.00752 kPa and 0.00762 kPa
323.2 K	0.00914 kPa and 0.00897 kPa and 0.00883 kPa
326.2 K	0.01113 kPa
328.2 K	0.01293 kPa
